Reference: patent US20090023646A1, “GHRH analogues” (Centre Hospitalier de L'Universite de Montreal (CHUM), priority 2002, published 2009)
Square brackets hold non-standard residues; d marks the D form. Peptide text beside a SMILES is read from it.

Legend:
[1] = In vitro proteolysis assay in human serum; format: in vitro ADME
Experimental: (§2) Ten μl of a 300 M solution of hGHRH (1-29)NH2 or of a GHRH analogue was solubilized in dimethylsulfoxide (DMSO) and incubated in one of the following conditions: a—190 μl serum (1/100 dilution in picopure water) from 2-month-old male Sprague Dawley rats, at 37° C. for 0, 8, 15, 30 or 60 min, in polypropylene tubes; b—190 μl of human healthy volunteer plasma (from Human Whole Blood Na EDTA, males, drug free (Algorithme Pharma Inc.); project: MTL-P2-155; Lot: MTLP2155-01, supplied by LAB Dev Int); and c—190 μl of human healthy volunteer pooled serum, Lot: X409 (supplied by LAB Dev Int), at 37° C. for 0, 60, 120, 180 or 420 min, in polypropylene tubes. Proteolysis was stopped by adding 800 μl of ice-cold stop buffer (potassium-phosphate buffer, acidified to pH 0.8 with trifluoroacetic acid (TFA) and boiling 5 min (rat serum only). After centrifugation (12000 g, 5 min, 4° C.) (rat serum only), serum-peptide mixtures were passed through a conditioned Sep-Pak C-18 cartridge to extract native GHRH or a GHRH analogue residual concentrations from serum proteins. The native GHRH or the analogue was eluted in 2 ml of 50% acetonitrile-0.01% TFA/50% 0.01% aqueous TFA. Two hundred μl of extracted peptide, representing 1 μg of GHRH or analogue at time 0, was quantified by analytical HPLC, using one μ-Bondapak C18 column (10 μm particle size, 0.39×15 cm) (rat serum) or two C18 column in series (human serum and plasma) and a binary solvent system composed of NaClO4 0.01 M, pH 2.5 and acetonitrile. A linear gradient from 30 to 60% acetonitrile over 45 min (rat serum) or 30 to 50% (human serum and plasma) was used.
(§3) More specifically, the values represent the mean, standard deviation and standard error from the mean of 3 to 7 experiments.

adult female rats = test: In vivo GH secretion after single IV or SC injection in female rats; design: species or system rat
Experimental: (§1) The ability of human GHRH analogue #5 (human [D-Ala^2, D-Tyr^10, D-Ala^15, Lys^22] GHRH (1-29)NH2 analogue) to stimulate GH secretion was studied in adult female rats (26-34 weeks at onset of treatment) and in a male Beagle dog.
Human GHRH analogue #5 in 0.9% sodium chloride for injection USP was administered once either by intravenous (IV) or subcutaneous (SC) injection to female rats followed by a 14-day observation period, as shown in Table 2. Prior to administration, all dosing formulations were filtered using a 0.22 μm filter to ensure sterility. The actual amount of GHRH analogue #5 administered was calculated and adjusted based on the animal's most recent body weight. Dosing started at approximately the same time each day, commencing at 9:00 am±30 minutes.
For pharmacodynamic investigations, blood samples (approximately 1.3 ml) were collected from 2 animals per group per time point (maximum 3 time points/animal) via a jugular venipuncture at the following time points: pre-dose, 4, 10, 15, 45 minutes and 5 hours post dosing. […]
Plasma GH was determined by Linco Diagnostic Services using their own kit.
Linco's Rat Growth Hormone radioimmunoassay kit (RIA) (RGH-45HK) is intended for the quantitative determination of Rat Growth Hormone in serum, plasma, and tissue culture media. […]

male Beagle dog = test: In vivo GH secretion after escalating SC injections in a male Beagle dog; settings: AUC not measured
Experimental: as §1
Human GHRH analogue #5, in 0.9% sodium chloride for injection USP, was administered on days 3, 5 and 8 at dose levels of 0.01, 0.1, and 1 mg/kg body weight, respectively by subcutaneous (SC) injection to an approximately 8-month old male dog as shown in Table 3. On Day 1, the dog received the control (vehicle) article and on Day 11, the animal received the positive control, hGHRH (1-44)NH2 at a dose level of 0.01 mg/kg. Prior to administration, all dosing formulations were filtered using a 0.22 μm filter to ensure sterility. The actual amount of GHRH analogue #5 administered was calculated and adjusted based on the animal's most recent body weight. Dosing started at approximately the same time each day, commencing at 9:00 am±30 minutes. […]
Plasma GH was determined by Linco Diagnostic Services using their own kit. Linco's Porcine/Canine Growth Hormone radioimmunoassay kit (RIA) (PGH-46HK) has been developed to quantitate Growth Hormone in plasma, serum, and tissue culture media. […]

in vitro = settings: male, human, plasma
Experimental: as §2, §3

R2 (60 min): Relative resistance to in vitro proteolysis in comparison with hGHRH(1-29)NH2 ([1]; 60-min incubation in human serum): 1.55 ± 0.04
R2 (180 min): Relative resistance to in vitro proteolysis in comparison with hGHRH(1-29)NH2 ([1]; 180-min incubation in human serum): 2.93 ± 0.87
Mean residual amount ([1]; human serum, incubation time 0 min): 100%
Mean residual amount ([1]; human serum, incubation time 420 min): 50%
remaining at 3 h, 15 µM ([1]; human, pooled human serum, 180-min incubation in human serum, read-out: Residual peptide concentration (180 min)): 62 ± 2%
remaining at 1 h, 15 µM ([1]; human, pooled human serum, human serum, incubation time 60 min, read-out: Mean residual amount): 88%
remaining at 2 h, 15 µM ([1]; human, pooled human serum, human serum, incubation time 120 min, read-out: Mean residual amount): 76%
remaining at 3 h, 15 µM ([1]; human, pooled human serum, human serum, incubation time 180 min, read-out: Mean residual amount): 63%
remaining at 7 h, 15 µM ([1]; human, pooled human serum, human serum, incubation time 420 min, read-out: Mean residual amount): 50%
remaining at 1 h, 15 µM (in vitro; Mean residual amount): 92%
remaining at 2 h, 15 µM (in vitro; Mean residual amount): 84%
remaining at 3 h, 15 µM (in vitro; Mean residual amount): 78%
remaining at 7 h, 15 µM (in vitro; Mean residual amount): 75%
remaining at 3 h, 15 µM (in vitro; Residual peptide concentration): 74 ± 7%
Compound: CC[C@H](C)[C@H](NC(=O)[C@H](C)NC(=O)[C@H](CC(=O)O)NC(=O)[C@@H](C)NC(=O)[C@@H](N)Cc1ccc(O)cc1)C(=O)N[C@@H](Cc1ccccc1)C(=O)N[C@H](C(=O)N[C@@H](CC(N)=O)C(=O)N[C@@H](CO)C(=O)N[C@H](Cc1ccc(O)cc1)C(=O)N[C@@H](CCCNC(=N)N)C(=O)N[C@@H](CCCCN)C(=O)N[C@H](C(=O)N[C@@H](CC(C)C)C(=O)N[C@H](C)C(=O)N[C@@H](CCC(N)=O)C(=O)N[C@@H](CC(C)C)C(=O)N[C@@H](CO)C(=O)N[C@@H](C)C(=O)N[C@@H](CCCNC(=N)N)C(=O)N[C@@H](CCCCN)C(=O)N[C@@H](CCCCN)C(=O)N[C@@H](CC(C)C)C(=O)N[C@@H](CCC(N)=O)C(=O)N[C@@H](CC(=O)O)C(=O)N[C@H](C(=O)N[C@@H](CCSC)C(=O)N[C@@H](CO)C(=O)N[C@@H](CCCNC(=N)N)C(N)=O)[C@@H](C)CC)C(C)C)[C@@H](C)O [GHRH analogue #5, [D-Ala^2, D-Tyr^10, D-Ala^15, Lys^22] hGHRH(1-29)-NH2] (H-Y[dA]DAIFTNS[dY]RKVL[dA]QLSARKKLQDIMSR-NH2)
in vivo potency compared with the natural 44 amino acid GHRH (adult female rats; in vivo, conclusion): at least two times more potent
GH secretion compared with response to natural hGHRH(1-44)NH2 (adult female rats; rat, pulse amplitude and AUC): twice larger
GH response compared with response to natural hGHRH(1-44)NH2 (male Beagle dog): significantly larger
